The record followed here is ChEMBL document CHEMBL3751703, “Structure-based design of a bisphosphonate 5(3)-deoxyribonucleotidase inhibitor” (Medchemcomm, 2015).

In assay [1] the target is 5'(3')-deoxyribonucleotidase, cytosolic type (Homo sapiens, UniProt Q8TCD5). Description: Inhibition of N-terminal hexaHis-tagged human cytosolic 5'(3')-deoxynucleotidase using dUMP as substrate.
Assay [2] deals with 5'(3')-deoxyribonucleotidase, mitochondrial (Homo sapiens, UniProt Q9NPB1). Briefly: Inhibition of N-terminal hexaHis-tagged human mitochondrial 5'(3')-deoxynucleotidase using dUMP as substrate.
Assay [3] is filed under the species Homo sapiens. Description: Selectivity ratio of Ki for N-terminal hexaHis-tagged human cytosolic 5'(3')-deoxynucleotidase to Ki for N-terminal hexaHis-tagged human mitochondrial 5'(3')-deoxynucleotidase.

5'(3')-deoxyribonucleotidase, cytosolic type, sequence (Q8TCD5 whole entry): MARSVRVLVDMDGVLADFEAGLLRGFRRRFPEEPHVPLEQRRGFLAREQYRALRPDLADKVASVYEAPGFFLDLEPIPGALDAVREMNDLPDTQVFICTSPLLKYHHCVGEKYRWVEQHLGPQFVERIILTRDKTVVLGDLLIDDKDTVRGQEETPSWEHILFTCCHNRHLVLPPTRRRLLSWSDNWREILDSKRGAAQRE
5'(3')-deoxyribonucleotidase, mitochondrial, sequence (Q9NPB1 whole entry): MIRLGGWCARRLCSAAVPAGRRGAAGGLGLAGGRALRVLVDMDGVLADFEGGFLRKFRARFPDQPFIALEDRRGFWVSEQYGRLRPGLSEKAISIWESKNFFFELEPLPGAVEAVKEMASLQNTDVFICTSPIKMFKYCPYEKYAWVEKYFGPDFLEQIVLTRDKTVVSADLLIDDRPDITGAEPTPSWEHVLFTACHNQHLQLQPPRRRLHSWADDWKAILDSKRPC

As to `O=c1[nH]c(=O)n([C@H]2C[C@H]3O[C@](c4ccccc4)(P(=O)(O)O)OC[C@H]3O2)cc1/C=C/P(=O)(O)O`, the inhibition constant (Ki) came to 21.7 µM in assay [1] and 0.128 µM in assay [2]. For the same molecule, the Ratio Ki in assay [3] came to 20.

By Ki is commonly meant the equilibrium dissociation constant of an inhibitor or competing ligand from its target. Low values mean a stronger hold on the target, high ones a looser hold on the target.
